Laboratory results published in US9885713B2, “Diagnosis and treatment of mycobacteria infections” (priority 2013, dated 2018).

Target: T1, Gp6 (Mycobacterium phage L5, UniProt Q05278, L15P)
T1 construct: pET-30a(+) vector-encoded N-terminal leader (additional residues up to the EcoRI site) (N); made in house; host or cells: E. coli BL21(DE3)
Test: Direct ESI-MS assay of carbohydrate binding
Parameters: species or system mycobacteriophage L5
Conditions: not given
Experimental: Chemically synthesized fragments of mycobacterial arabinans and phenolic glycolypids were used to test the carbohydrate binding ability of recombinant Gp6. Association constants (Ka) for Gp6 binding to carbohydrate ligands were measured using the direct electrospray ionization mass spectrometry (ESI-MS) assay. The assay is based on the direct detection and quantification of the abundance of ligand-bound and unbound protein ions in the gas phase. All binding measurements were carried out at 25° C. and pH 7.2 using a 9.4T ApexQe FTICR mass spectrometer (Bruker, Billerica, Mass.). ESI was performed in aqueous ammonium acetate (100 mM) solutions prepared from stock solutions of protein and oligosaccharide. The single chain variable fragment (scFv) of the monoclonal antibody Se155-4 was used as reference protein to distinguish specific from nonspecific ligand binding with the protein during the ESI-MS measurements.

T1 sequence (Q05278 other isoform, or with tags, fused parts or gaps L15P): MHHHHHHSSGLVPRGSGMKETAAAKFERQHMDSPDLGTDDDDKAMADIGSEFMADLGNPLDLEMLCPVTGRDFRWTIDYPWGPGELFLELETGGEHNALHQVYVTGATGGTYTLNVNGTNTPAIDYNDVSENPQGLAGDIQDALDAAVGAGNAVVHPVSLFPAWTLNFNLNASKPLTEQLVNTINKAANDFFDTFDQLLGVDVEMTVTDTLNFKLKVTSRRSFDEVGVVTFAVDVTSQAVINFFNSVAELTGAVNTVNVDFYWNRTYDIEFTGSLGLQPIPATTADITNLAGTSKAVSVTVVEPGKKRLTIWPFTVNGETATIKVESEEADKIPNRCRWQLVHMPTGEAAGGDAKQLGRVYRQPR

O=C(NCCCCCCCCO[C@H]1O[C@H](CO[C@H]2O[C@H](CO[C@H]3O[C@H](CO)[C@@H](O)[C@@H]3O[C@@H]3O[C@H](CO[C@H]4O[C@H](CO)[C@@H](O)[C@H](O)[C@@H]4O)[C@@H](O)[C@@H]3O)[C@@H](O)[C@@H]2O)[C@@H](O)[C@@H]1O)C(F)(F)F [compound 1, α-Manp-(1→5)-β-Araf-(1→2)-α-Araf-(1→5)-α-Araf-(1→5)-α-Araf-octyl-NHCOCF3] and O=C(NCCCCCCCCO[C@H]1O[C@H](CO[C@H]2O[C@H](CO[C@H]3O[C@H](CO)[C@@H](O)[C@@H]3O[C@@H]3O[C@H](CO[C@H]4O[C@H](CO)[C@@H](O)[C@H](O)[C@@H]4O[C@H]4O[C@H](CO)[C@@H](O)[C@H](O)[C@@H]4O)[C@@H](O)[C@@H]3O)[C@@H](O)[C@@H]2O)[C@@H](O)[C@@H]1O)C(F)(F)F [compound 2, α-Manp-(1→2)-α-Manp-(1→5)-β-Araf-(1→2)-α-Araf-(1→5)-α-Araf-(1→5)-α-Araf-octyl-NHCOCF3] are within 1.5-fold of each other in Kd: 256 µM for the first, 227 µM for the second.

O=C(NCCCCCCCCO[C@H]1O[C@H](CO[C@H]2O[C@H](CO[C@H]3O[C@H](CO)[C@@H](O)[C@@H]3O[C@@H]3O[C@H](CO)[C@@H](O)[C@@H]3O)[C@@H](O[C@H]3O[C@H](CO)[C@@H](O)[C@@H]3O[C@@H]3O[C@H](CO)[C@@H](O)[C@@H]3O)[C@@H]2O)[C@@H](O)[C@@H]1O)C(F)(F)F [compound 3, β-Araf-(1→2)-α-Araf-(1→5)[β-Araf-(1→2)-α-Araf-(1→3)]-α-Araf-(1→5)-α-Araf-octyl-NHCOCF3] and O=C(NCCCCCCCCO[C@H]1O[C@H](CO[C@H]2O[C@H](CO[C@H]3O[C@H](CO)[C@@H](O)[C@@H]3O[C@@H]3O[C@H](CO[C@H]4O[C@H](CO)[C@@H](O)[C@H](O)[C@@H]4O[C@H]4O[C@H](CO)[C@@H](O)[C@H](O)[C@@H]4O[C@H]4O[C@H](CO)[C@@H](O)[C@H](O)[C@@H]4O)[C@@H](O)[C@@H]3O)[C@@H](O)[C@@H]2O)[C@@H](O)[C@@H]1O)C(F)(F)F [compound 9, α-Manp-(1→2)-α-Manp-(1→2)-α-Manp-(1→5)-β-Araf-(1→2)-α-Araf-(1→5)-α-Araf-(1→5)-α-Araf-octyl-NHCOCF3] are within 1.5-fold of each other in Kd: 278 µM for the first, 385 µM for the second.

O=C(NCCCCCCCCO[C@H]1O[C@H](CO[C@H]2O[C@H](CO[C@H]3O[C@H](CO)[C@@H](O)[C@@H]3O)[C@@H](O)[C@@H]2O)[C@@H](O)[C@@H]1O)C(F)(F)F [compound 5, α-Araf-(1→5)-α-Araf-(1→5)-α-Araf-octyl-NHCOCF3] and O=C(NCCCCCCCCO[C@H]1O[C@H](CO[C@H]2O[C@H](CO[C@H]3O[C@H](CO[C@H]4O[C@H](CO)[C@@H](O)[C@@H]4O)[C@@H](O)[C@@H]3O)[C@@H](O)[C@@H]2O)[C@@H](O)[C@@H]1O)C(F)(F)F [compound 8, α-Araf-(1→5)-α-Araf-(1→5)-α-Araf-(1→5)-a-Araf-octyl-NHCOCF3] are within 1.5-fold of each other in Kd: 132 µM for the first, 145 µM for the second.

Going from O=C(NCCCCCCCCO[C@H]1O[C@H](CO[C@H]2O[C@H](CO[C@H]3O[C@H](CO)[C@@H](O)[C@@H]3O)[C@@H](O[C@H]3O[C@H](CO)[C@@H](O)[C@@H]3O)[C@@H]2O)[C@@H](O)[C@@H]1O)C(F)(F)F [compound 6, α-Araf-(1→5)-[α-Araf-(1→3)]-α-Araf-(1→5)-α-Araf-octyl-NHCOCF3] to O=C(NCCCCCCCCO[C@H]1O[C@H](CO[C@H]2O[C@H](CO)[C@@H](O[C@H]3O[C@H](CO)[C@@H](O)[C@@H]3O[C@@H]3O[C@H](CO)[C@@H](O)[C@@H]3O)[C@@H]2O)[C@@H](O)[C@@H]1O)C(F)(F)F [compound 7, β-Araf-(1→2)-α-Araf-(1→3)-α-Araf-(1→5)-α-Araf-octyl-NHCOCF3], the Kd rises from 417 µM to 909 µM (2.2-fold). The first binds more tightly here.

Compared with COc1ccc(O[C@@H]2O[C@@H](C)[C@H](O)[C@@H](O[C@@H]3O[C@@H](C)[C@H](O)[C@@H](O[C@@H]4O[C@@H](C)[C@@H](OC)[C@@H](OC)[C@@H]4OC)[C@H]3O)[C@H]2OC)cc1 [compound 10, 2,3,4-tri-O-CH3-α-Fucp-(1→3)-α-Rhap(1→3)-2-O-CH3-α-RhapOPMP], COc1ccc(O[C@@H]2O[C@@H](C)[C@H](O)[C@@H](O[C@@H]3O[C@@H](C)[C@H](O)[C@@H](O[C@@H]4O[C@@H](C)[C@@H](OC)[C@@H](OC)[C@@H]4OC)[C@H]3O)[C@H]2O)cc1 [compound 12, 2,3,4-tri-O-CH3-α-Fucp-(1→3)-α-Rhap(1→3)-α-RhapOpPMP] is 3.5-fold lower in Kd: 1000 ± 500 µM for the first, 286 µM for the second.

COc1ccc(O[C@@H]2O[C@@H](C)[C@H](O)[C@@H](O[C@@H]3O[C@@H](C)[C@H](O)[C@@H](O[C@@H]4O[C@@H](C)[C@@H](OC)[C@@H](O)[C@@H]4OC)[C@H]3O)[C@H]2O)cc1 [compound 11, 2,4-di-O-CH3-α-Fucp-(1→3)-α-Rhap(1→3)-α-Rhap-OPMP] and COC[C@H]1O[C@@H](O[C@@H]2[C@@H](OC)[C@@H](OC)[C@H](O[C@H]3[C@H](Oc4ccc(OC)cc4)O[C@@H](C)[C@H](O)[C@H]3OC)O[C@H]2C)[C@H](O)[C@@H](OC)[C@@H]1O [compound 13, 3,6-di-O-CH3-β-Glcp-(1→4)-2,3-di-O-CH3-α-Rhap-(1→2)-3-O-CH3-α-RhapOPMP] are within 1.5-fold of each other in Kd: 333 µM for the first, 417 µM for the second.

Same assay, conditions: 25° C., pH 7.2, direct ESI-MS assay

With “6-O-CH3-β-Glcp-(1→4)-2,3-di-O-CH3-α-Rhap-(1→2)-3-O-CH3-α-RhapOPMP [compound 14]” the “Association constants (Ka) for Gp6” value was “NB^3”.
With O=C(NCCCCCCCCO[C@H]1O[C@H](CO[C@H]2O[C@H](CO[C@H]3O[C@H](CO)[C@@H](O)[C@@H]3O[C@@H]3O[C@H](CO)[C@@H](O)[C@@H]3O)[C@@H](O)[C@@H]2O)[C@@H](O)[C@@H]1O)C(F)(F)F [compound 4, β-Araf-(1→2)-α-Araf-(1→5)-α-Araf-(1→5)-α-Araf-octyl-NHCOCF3] the “Association constants (Ka) for Gp6” value was “NB^3”.
COc1ccc(OC2OC(C)C(O)C(OC3OC(C)C(O)C(O)C3O)C2OC)cc1 (stereo not drawn) [compound 15, α-Rhap-(1→3)-2-O-CH3-α-RhapOPMP] was tested, and the “Association constants (Ka) for Gp6” value was “NB^3”.
